Assays:
[1] = system: MGG23; assay: Sphere-forming ability (anchorage-independent cell proliferation), MGG23; assay type: cell-based, human; conditions: MGG23 (low FTSJ1 expression), 1 week, 0-5000 nM; FIG. 4B
Protocol: (§1) To verify whether the expression analysis of these gene clusters contributes to predicting the anti-cancer effect by the FTSJ1 inhibitors, the FTSJ1 gene was actually used as an example to analyze the anti-cancer effect of the FTSJ1 inhibitor PVZF2001 on human malignant brain tumor cell lines. Human malignant brain tumor cell lines MGG4, MGG8, MGG18, MGG23 were treated with stem cell medium (Neurobasal, B-27, N-2, 20 ng/mL EGF, 20 ng/mL bFGF) containing different concentrations (0 nm, 200 nM, 500 nM, 1000 NM, 2000 NM, 5000 nM) of PVZF2001 for 1 week, and anchorage-independent cell proliferation was evaluated based on sphere-forming ability.

[2] = system: YAP/TAZ; assay: Screening: YAP/TAZ activity reporter (8xGTIIC plasmid) assay in NUGC3 cells (luminescence % of DMSO); assay type: cell-based, human; conditions: NUGC3 cells, luminescence relative to DMSO
[3] = system: MGG18; assay: Sphere-forming ability (anchorage-independent cell proliferation), MGG18; assay type: cell-based, human; conditions: MGG18 (high FTSJ1 expression), 1 week, 0-5000 nM; FIG. 4B
Protocol: as §1

[4] = Body weight in the anti-tumor effect evaluation test; assay type: in vivo, immunodeficient mice (BALB/c-nu/nu); conditions: 20 mg/kg intraperitoneally every other day
Protocol: (§2) A cell suspension (1×10^6 cells/100 μL), in which triple-negative breast cancer cell line MDA-MB-231 was suspended in phosphate buffer (PBS, produced by FUJIFILM Wako Pure Chemical Corporation), was inoculated subcutaneously in the dorsal lumbar region of immunodeficient mice (BALB/c-nu/nu, female, 6 weeks old, purchased from Shimizu Laboratory Supplies Co., Ltd.) using a syringe with a 23 G injection needle (Terumo Corporation). After confirming that the cancer cells engrafted under the skin of the mice to form tumor tissues, and that the tumor volume reached 100 mm^3, the obtained tumor model mice were used for the following evaluation test. First, each compound for evaluation was dissolved in corn oil (produced by Sigma-Aldrich Co., LLC) and administered intraperitoneally. PVZF0024 was administered at 100 mg/kg and PVZF2001 was administered at 20 mg/kg to the tumor model mice every other day. At each administration, the tumor diameter was measured with a caliper. The tumor volume was calculated according to the following formula: V=(3.14×D×d^2)/6 (wherein V is the tumor volume, D is the tumor major axis, and d is the tumor minor axis) (Wu. et al., Clin. Cancer Res., 2013 Oct. 15; 19(20): 5699-5710).
FIGS. 1 and 2 show the antitumor effects of PVZF0024 and PVZF2001.

[5] = system: triple-negative breast cancer cell line MDA-MB-231; assay: Anti-tumor effect evaluation test in MDA-MB-231 tumor model mice; assay type: in vivo, immunodeficient mice (BALB/c-nu/nu); conditions: 20 mg/kg intraperitoneally every other day in corn oil; FIG. 1 and 2
Protocol: as §2

SMILES: CC(C)c1cc(C(C)C)c(S(=O)(=O)CC2CC(C)(C)CC(C)(C)C2)c(C(C)C)c1 [PVZF2001]
- anchorage-independent cell proliferation (sphere-forming ability) [1]: showed cell proliferation even when treated at a concentration as high as 2000 NM
- 8×GTIIC ([2]; 5 μM): 40.38%
- 8×GTIIC ([2]; 10 μM): 20.02%
- anchorage-independent cell proliferation (sphere-forming ability) [3]: showed proliferation inhibition at low concentrations
- weight loss due to administration [4]: no weight loss due to administration was observed
- antitumor effect (tumor growth, tumor volume) [5]: significantly inhibit tumor growth

From US20230210834A1, “RNA METHYLTRANSFERASE INHIBITOR, SCREENING METHOD THEREFOR, ANTI-CANCER AGENT EFFICACY ASSESSMENT MARKER, AND KIT FOR EFFECTIVELY PREDICTING FTSJ1 INHIBITOR” (National University Corporation Okayama University, priority 2019, published 2023)
